20 compounds from PubChem BioAssay (NCI) can be followed below.

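Dose response: 5 concentrations. Exposure: 48 h. Format: 96-well plates. Endpoint: linear interpolation; highest concentration if not reached. Here, GI50 denotes the concentration required for 50% inhibition of growth. Definition used: TGI = concentration required for complete inhibition of growth.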

What all share (assay): DTP human tumour cell line panel, 48 h
Test [1] concerns A498 renal.
Test [2] relates to HCC-2998 colon.
The subject of test [3] is HOP-62 NSCLC.
In test [4] the test system is HOP-92 NSCLC.
The subject of test [5] is K-562 leukemia.
Test [6] concerns NCI-H226 lung.
The subject of test [7] is NCI/ADR-RES ovarian.
The subject of test [8] is OVCAR-4 ovarian.
For test [9], the system named is PC-3 prostate.
The subject of test [10] is SF-295 CNS.
The test system of test [11] is SK-MEL-5 melanoma.
Test [12] concerns SN12C renal.
In test [13] the test system is SNB-75 CNS.
Test [14] relates to TK-10 renal.
The subject of test [15] is UACC-62 melanoma.
Test [16] concerns SNB-19 CNS.
Test [17] has as its system DU-145 prostate.

As usually defined, the TGI is the concentration at which net growth stops. For `CN(C)c1nncc2n[nH]nc12`, the TGI in test [1], in [2], in test [3], in test [4], in [5] and in [6] was > 100 µM each time. The TGI in test [7], in [8], in test [9], in [10], in test [11] and in test [12] was > 100 µM throughout. In addition, the TGI in test [13], in test [14] and in test [15] was > 100 µM throughout.

With `CN(C)c1snc2c1c(=O)n(C)c(=O)n2C`, the TGI in test [1], in test [2], in [3], in [5], in [6] and in [8] was > 100 µM in each case. Also, the concentration for total growth inhibition (TGI) in [10], in test [11], in test [12], in test [16], in test [13] and in [14] was > 100 µM each time. The total growth inhibition concentration (TGI) in [15] is > 100 µM.

As for `COC(=O)[C@H]1COC(=O)N1`, the TGI in test [1], in test [17], in test [2], in [3], in test [4] and in test [5] was > 100 µM throughout. Moreover, the concentration for total growth inhibition (TGI) in [6], in [7], in [8], in [10], in [11] and in test [12] was > 100 µM throughout. Besides, the TGI in test [16], in test [13], in test [14] and in [15] was > 100 µM throughout.

Regarding `CCOC(OCC)N1C(=O)C2(C(OCC)OCC)CC3C(OC(=O)N3N)c3cccc1c32` (centres undefined), the total growth inhibition concentration (TGI) in test [1], in test [17], in test [2], in test [3], in test [6] and in [7] was > 100 µM throughout. Besides, the TGI in [8], in test [10], in test [11], in test [12], in test [16] and in test [14] was > 100 µM in each case. Further, the TGI in test [15] is > 100 µM.

Turning to `O=c1c(-c2ccccc2F)coc2cc(F)ccc12`, the concentration for total growth inhibition (TGI) in test [1], in [17], in test [3], in [4], in [6] and in test [8] was > 100 µM each time. Also, the TGI was > 100 µM in [9]; > 100 µM in [10]; > 100 µM in test [11]; > 100 µM in [12]; > 100 µM in test [16]; 96.4 µM in test [13]. The TGI in test [14] and in [15] was > 100 µM in each case.

On to `C/C=C1\CN2CCc3c([nH]c4ccccc34)C2C=C1CCO` (centres undefined), for which the TGI in test [2], in test [3], in test [4], in test [5], in [6] and in [10] was > 340 µM throughout. In addition, the concentration for total growth inhibition (TGI) in test [11], in [12], in test [16], in [14] and in test [15] was > 340 µM throughout.

Turning to `Nc1ccc(C23CC4CC(C2)CC(c2ccc(N)cc2)(C4)C3)cc1`, the total growth inhibition concentration (TGI) in test [1] was 47.4 µM; in test [17] it was > 100 µM; in [2] it was 78.6 µM; in test [3], > 100 µM; in test [4] it was > 100 µM; in test [5], 36.8 µM. For the same compound, the total growth inhibition concentration (TGI) is 44.9 µM in [6]; > 100 µM in test [7]; > 100 µM in test [8]; 26.9 µM in test [11]; 59.5 µM in test [12]; > 100 µM in test [16]. Also, the concentration for total growth inhibition (TGI) in [14] and in [15] was > 100 µM each time.

As for `CC(C)(C)OC(=O)NCCCC(=O)NC1(c2cc3ccccc3s2)CCCCC1`, the TGI is 51 µM in test [1]; > 100 µM in [17]; 48.5 µM in test [2]; 41.5 µM in test [3]; 37.6 µM in [4]; 51.4 µM in test [5]. Further, the concentration for total growth inhibition (TGI) in test [7] was 70 µM; in test [8] it was > 100 µM; in test [10], 34 µM; in [11], 19.9 µM; in test [12], 35.9 µM; in test [16] it was > 100 µM. Further, the TGI in [13] was 27.7 µM; in test [14], 97.2 µM; in test [15] it was 24.3 µM.

For the compound `COC(=O)C(Br)C1CCc2ccccc21` (centres undefined), the TGI in [1], in test [2], in test [3], in test [4], in test [5] and in [6] was > 100 µM throughout. For the same compound, the TGI in test [8], in test [10], in test [11], in test [12], in [16] and in test [14] was > 100 µM in each case. Besides, in test [15], the TGI is > 100 µM.

For the compound `Cn1c2ccccc2c(=O)c2cccc(C(=O)NCC(=O)O)c21`, the TGI in [17], in test [2], in [3], in test [5], in test [6] and in [7] was > 100 µM each time. Besides, the TGI in [8], in test [9], in [10], in [11], in test [12] and in test [16] was > 100 µM throughout. Also, the TGI in test [13], in test [14] and in [15] was > 100 µM in each case.

Turning to `COc1ccc(/C(=C/n2ccnc2)C(O)c2ccc(OC)c(OC)c2)cc1OC` (centres undefined), the TGI in test [1], in test [3], in test [4], in test [5], in test [6] and in [8] was > 100 µM in each case. In addition, the concentration for total growth inhibition (TGI) in test [10], in [12], in [16], in [13] and in [14] was > 100 µM in each case.

With `O=C(NNC(=S)NCc1ccccc1)c1csc(NC(=S)NC2CCCCC2)n1`, the TGI is > 100 µM in test [1]; > 100 µM in test [17]; > 100 µM in test [2]; > 100 µM in test [3]; 64.7 µM in [6]; 96.4 µM in [7]. Besides, the total growth inhibition concentration (TGI) in test [9] was > 100 µM; in [10], > 100 µM; in test [11], 28.2 µM; in test [12], 95.7 µM; in test [16] it was > 100 µM; in test [14], > 100 µM. The concentration for total growth inhibition (TGI) in [15] was > 100 µM.

As to `CCOc1ccccc1-c1nc2c(s1)C(=O)c1ccccc1C2=O`, the TGI is 29.4 µM in test [1]; 36.5 µM in [17]; 29.5 µM in test [2]; 28.7 µM in test [3]; 25 µM in [4]; 32.4 µM in [5]. Further, the TGI is 35 µM in test [8]; 29.6 µM in test [9]; 25.1 µM in test [10]; 18.7 µM in test [11]; > 100 µM in test [12]; 65.3 µM in [16]. Besides, the concentration for total growth inhibition (TGI) in test [13] stood at 25.6 µM; in [14] it was 34.4 µM; in test [15] it was 13.8 µM.

On to `CC(=O)OCC(C)(COC(C)=O)N1C(=O)C2C3c4ccccc4C(c4ccccc43)C2C1=O` (centres undefined), for which the TGI in test [1], in [17], in [4], in test [5], in test [6] and in [9] was > 100 µM throughout. The concentration for total growth inhibition (TGI) in test [10], in [11], in test [16], in [13], in [14] and in test [15] was > 100 µM throughout.

As for `COC(=O)C(C(=O)C(=O)Nc1cccc([N+](=O)[O-])c1)c1nc2ccc([N+](=O)[O-])cc2[nH]c1=O` (centres undefined), the TGI in test [1], in test [2], in [3], in test [5], in [6] and in test [8] was > 100 µM throughout. Moreover, the TGI in test [10], in test [11], in test [12], in test [16], in test [13] and in test [14] was > 100 µM in each case. In addition, the concentration for total growth inhibition (TGI) in test [15] is > 100 µM.

With `C#CCN(N=O)C(=O)NCCCCC(NC(C)=O)C(=O)NCc1ccccc1` (centres undefined), the TGI in test [1], in test [2], in test [3], in test [4], in test [5] and in test [6] was > 100 µM in each case. For the same compound, the total growth inhibition concentration (TGI) in [8], in [10], in [11], in [12], in test [16] and in [13] was > 100 µM each time. Further, the total growth inhibition concentration (TGI) in test [14] and in test [15] was > 100 µM in each case.

The GI50 is the concentration giving 50% growth inhibition. Take `O=c1cc(-c2ccco2)[nH]c2cc3c(cc12)OCO3`: the concentration for total growth inhibition (TGI) in test [1] is > 100 µM; in test [2], > 100 µM; in [3], 43.8 µM; in [5], > 100 µM; in test [6] it was > 100 µM; in [8], > 100 µM. In addition, the concentration for total growth inhibition (TGI) in test [10] is > 100 µM; in test [11], > 100 µM; in test [12], > 100 µM; in [16], > 100 µM; in test [13] it was 56.5 µM; in test [14], > 100 µM. Moreover, the TGI in test [15] is > 100 µM. Also, the GI50 is 24.4 µM in [6], 28.1 µM in [10] and 13.4 µM in test [11].

`O=C1c2ccccc2C(=O)C1C(c1ccc(F)cc1)C1C(=O)c2ccccc2C1=O`: the concentration for total growth inhibition (TGI) in [2], in test [3], in test [4], in test [5], in [6] and in [8] was > 100 µM in each case. For the same compound, the TGI in test [10], in test [11], in test [12], in test [16], in test [13] and in test [14] was > 100 µM each time. In test [15], the TGI was > 100 µM.

As for `C=CCN1/C(=C2\SC(=S)N(c3ccc(C)cc3)C2=O)Sc2c1nc[nH]c2=O`, the TGI in [1], in test [3], in test [4], in [5], in test [6] and in test [8] was > 100 µM throughout. For the same compound, the concentration for total growth inhibition (TGI) in test [10], in test [11], in [12], in [16], in [14] and in [15] was > 100 µM in each case.

On to `CC1=NN(c2nc(N)nc(C/C(N)=N/O)n2)C(C)(C)C1`, for which the concentration for total growth inhibition (TGI) in test [1], in test [17], in test [2], in [3], in [4] and in test [5] was > 100 µM throughout. Moreover, the concentration for total growth inhibition (TGI) in test [6], in [7], in test [8], in [10], in test [11] and in test [12] was > 100 µM in each case. The TGI in test [16], in test [13], in test [14] and in [15] was > 100 µM throughout.
